Test results reported in patent publication US20070232590A1, “3-Cylcoalkylbenzazepines as Histamine H3 Antagonists” (GLAXO GROUP LIMITED, priority 2004, published 2007).

Experiments:
[1] = target: T1, histamine H3 receptor (Homo sapiens, UniProt Q9Y5N1); experiment: Histamine H3 functional antagonist assay (method A), [35S]-GTPγS SPA on membranes; format: biochemical; conditions: functional pKi, membrane from cultured H3 cells (CHO K1), histamine at EC80, averages of a number of experiments, read-out: Antagonism (fpKi) (converted)
T1 construct: expressed in transfected cells; host or cells: CHO K1 cells carrying pSwitch, transfected with pGeneH3 and induced with mifepristone; clone 3H3; membrane preparation
From the text: (§1) A membrane preparation containing histamine H3 receptors may be prepared in accordance with the following procedures:
(§2) (i) Generation of Histamine H3 Cell Line
(§3) DNA encoding the human histamine H3 gene (Huvar, A. et al. (1999) Mol. Pharmacol. 55(6), 1101-1107) was cloned into a holding vector, pCDNA3.1 TOPO (InVitrogen) and its cDNA was isolated from this vector by restriction digestion of plasmid DNA with the enzymes BamH1 and Not-1 and ligated into the inducible expression vector pGene (InVitrogen) digested with the same enzymes. The GeneSwitch™ system (a system where in transgene expression is switched off in the absence of an inducer and switched on in the presence of an inducer) was performed as described in U.S. Pat. Nos. 5,364,791; 5,874,534; and 5,935,934. Ligated DNA was transformed into competent DH5α E. coli host bacterial cells and plated onto Luria Broth (LB) agar containing Zeocin™ (an antibiotic which allows the selection of cells expressing the sh ble gene which is present on pGene and pSwitch) at 50 μg ml^−1. Colonies containing the re-ligated plasmid were identified by restriction analysis. DNA for transfection into mammalian cells was prepared from 250 ml cultures of the host bacterium containing the pGeneH3 plasmid and isolated using a DNA preparation kit (Qiagen Midi-Prep) as per manufacturers guidelines (Qiagen).
CHO K1 cells previously transfected with the pSwitch regulatory plasmid (InVitrogen) were seeded at 2×10e6 cells per T75 flask in Complete Medium, containing Hams F12 (GIBCOBRL, Life Technologies) medium supplemented with 10% v/v dialysed foetal bovine serum, L-glutamine, and hygromycin (100 μg ml^−1), 24 hours prior to use. Plasmid DNA was transfected into the cells using Lipofectamine plus according to the manufacturers guidelines (InVitrogen). 48 hours post transfection cells were placed into complete medium supplemented with 500 μg ml^−1 Zeocin™.
10-14 days post selection 10 nM Mifepristone (InVitrogen), was added to the culture medium to induce the expression of the receptor. 18 hours post induction cells were detached from the flask using ethylenediamine tetra-acetic acid (EDTA; 1:5000; InVitrogen), following several washes with phosphate buffered saline pH 7.4 and resuspended in Sorting Medium containing Minimum Essential Medium (MEM), without phenol red, and supplemented with Earles salts and 3% Foetal Clone II (Hyclone). Approximately 1×10e7 cells were examined for receptor expression by staining with a rabbit polyclonal antibody, 4a, raised against the N-terminal domain of the histamine H3 receptor, incubated on ice for 60 minutes, followed by two washes in sorting medium. Receptor bound antibody was detected by incubation of the cells for 60 minutes on ice with a goat anti rabbit antibody, conjugated with Alexa 488 fluorescence marker (Molecular Probes). Following two further washes with Sorting Medium, cells were filtered through a 50 μm Filcon™ (BD Biosciences) and then analysed on a FACS Vantage SE Flow Cytometer fitted with an Automatic Cell Deposition Unit. Control cells were non-induced cells treated in a similar manner. Positively stained cells were sorted as single cells into 96-well plates, containing Complete Medium containing 500 μg ml^−1 Zeocin™ and allowed to expand before reanalysis for receptor expression via antibody and ligand binding studies. One clone, 3H3, was selected for membrane preparation.
(ii) Membrane Preparation from Cultured Cells
All steps of the protocol are carried out at 4° C. and with pre-cooled reagents. The cell pellet is resuspended in 10 volumes of homogenisation buffer (50 mM N-2-hydroxyethylpiperazine-N′-2-ethanesulfonic acid (HEPES), 1 mM ethylenediamine tetra-acetic acid (EDTA), pH 7.4 with KOH, supplemented with 10e-6M leupeptin (acetyl-leucyl-leucyl-arginal; Sigma L2884), 25 μg/ml bacitracin (Sigma B0125), 1 mM phenylmethylsulfonyl fluoride (PMSF) and 2×10 e-6M pepstain A (Sigma)). […]

[2] = target: T1, histamine H3 receptor; experiment: Histamine H3 functional antagonist assay (method B), [35S]-GTPγS SPA on membranes; format: biochemical; conditions: functional pKi, membrane from cultured H3 cells (CHO K1), histamine at EC80, averages of a number of experiments, read-out: Antagonism (fpKi) (converted)
From the text: as §1, §2
as §3, with “(Qiagen). […]” for “(Qiagen).”
10-14 days post selection 10 nM Mifepristone (InVitrogen), was added to the culture medium to induce the expression of the receptor. […] Receptor bound antibody was detected by incubation of the cells for 60 minutes on ice with a goat anti rabbit antibody, conjugated with Alexa 488 fluorescence marker (Molecular Probes). Following two further washes with Sorting Medium, cells were filtered through a 50 μm Filcon™ (BD Biosciences) and then analysed on a FACS Vantage SE Flow Cytometer fitted with an Automatic Cell Deposition Unit. […]

T1 sequence (Q9Y5N1 whole entry): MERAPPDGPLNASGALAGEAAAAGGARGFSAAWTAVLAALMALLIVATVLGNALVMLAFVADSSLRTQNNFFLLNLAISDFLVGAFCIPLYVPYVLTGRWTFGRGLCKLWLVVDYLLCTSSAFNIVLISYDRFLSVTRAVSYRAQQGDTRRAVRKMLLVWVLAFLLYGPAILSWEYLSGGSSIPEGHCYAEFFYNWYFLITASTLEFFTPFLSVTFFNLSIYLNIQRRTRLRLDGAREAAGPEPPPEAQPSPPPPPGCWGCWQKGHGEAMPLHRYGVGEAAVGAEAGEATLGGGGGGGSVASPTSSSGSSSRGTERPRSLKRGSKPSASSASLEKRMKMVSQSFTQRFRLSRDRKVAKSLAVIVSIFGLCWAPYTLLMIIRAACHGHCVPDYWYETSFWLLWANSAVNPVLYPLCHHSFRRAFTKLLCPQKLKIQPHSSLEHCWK

Row | Structure (SMILES) | Ki [1] [nM] | Ki [2] [nM]
1 | O=C1CCCN1c1cnc(Oc2ccc3c(c2)CCN(C2CCCC2)CC3)cn1 [Compound 2, 1-{5-[(3-Cyclopentyl-2,3,4,5-tetrahydro-1H-3-benzazepin-7-yl)oxy]-2-pyrazinyl}-2-pyrrolidinone] | 0.0794 | 0.158
2 | Cc1noc(-c2cnc(Oc3ccc4c(c3)CCN(C3CCCC3)CC4)cn2)n1 [Compound 7, 3-Cyclopentyl-7-{[5-(3-methyl-1,2,4-oxadiazol-5-yl)-2-pyrazinyl]oxy}-2,3,4,5-tetrahydro-1H-3-benzazepine] | 0.126 | –
3 | Cc1noc(-c2ccc(Oc3ccc4c(c3)CCN(C3CCC3)CC4)nc2)n1 [Compound 8, 3-Cyclobutyl-7-{[5-(3-methyl-1,2,4-oxadiazol-5-yl)-2-pyridinyl]oxy}-2,3,4,5-tetrahydro-1H-3-benzazepine] | 0.1 | –
4 | O=C1OCCN1c1ccc(Oc2ccc3c(c2)CCN(C2CCCC2)CC3)nn1 [Compound 5, 3-{6-[(3-Cyclopentyl-2,3,4,5-tetrahydro-1H-3-benzazepin-7-yl)oxy]-3-pyridazinyl}-1,3-oxazolidin-2-one] | 0.0501 | –
5 | Cc1noc(-c2ccc(Oc3ccc4c(c3)CCN(C3CCCC3)CC4)nc2)n1 [Compound 9, 3-Cyclopentyl-7-{[5-(3-methyl-1,2,4-oxadiazol-5-yl)-2-pyridinyl]oxy}-2,3,4,5-tetrahydro-1H-3-benzazepine] | 0.251 | –

Now from value to molecule:

Row | Ki [1] [nM] | Ki [2] [nM] | Structure (SMILES)
6 | 0.0501 | 0.158 | CN1CCN(c2ccc(Oc3ccc4c(c3)CCN(C3CCC3)CC4)c(F)c2)C1=O [Compound 3, 1-{4-[(3-Cyclobutyl-2,3,4,5-tetrahydro-1H-3-benzazepin-7-yl)oxy]-3-fluorophenyl}-3-methyl-2-imidazolidinone]
7 | 0.0794 | 0.158 | O=C1CCCN1c1ccc(Oc2ccc3c(c2)CCN(C2CCCC2)CC3)nc1 [Compound 1, 1-{6-[(3-Cyclopentyl-2,3,4,5-tetrahydro-1H-3-benzazepin-7-yl)oxy]-3-pyridinyl}-2-pyrrolidinone]
8 | 0.158 | – | O=C1CCCN1c1ccc(Oc2ccc3c(c2)CCN(C2CCC2)CC3)cc1 [Compound 4, 1-{4-[(3-Cyclobutyl-2,3,4,5-tetrahydro-1H-3-benzazepin-7-yl)oxy]phenyl}-2-pyrrolidinone]
9 | 0.126 | – | O=C1CCCN1c1ccc(Oc2ccc3c(c2)CCN(C2CCCC2)CC3)nn1 [Compound 6, 1-{6-[(3-Cyclopentyl-2,3,4,5-tetrahydro-1H-3-benzazepin-7-yl)oxy]-3-pyridazinyl}-2-pyrrolidinone]
